Measurements reported in patent US20080145858A1, “DETECTION AND IDENTIFICATION OF TOXICANTS BY MEASUREMENT OF GENE […]” (priority 2003, published 2008).
Marks after values point to notes of the source that are not given here.

System: Xenopus laevis neurulation stage embryos (stage 15)
Assay: Xenopus cDNA microarray, differential gene expression after PMA treatment during neurulation (Group II)
Type: in vivo
Conditions: PMA, stage 15
Description: Specifically, the method and screen of the present invention function as follows. EST clones produced from Xenopus laevis unfertilized eggs were used in the present study with ˜1,200 EST clones from a 18,500 EST clone set selected for production of a Xenopus cDNA microarray. The Xenopus microarray was used to measure the effect of chemical treatment on Xenopus embryo gene regulation. The chemical treatment was a phorbol ester, PMA. Xenopus eggs were obtained from females induced for ovulation and fertilized in vitro. Control Xenopus laevis embryos were allowed to develop to stage 8 blastula or stage 15 neurula. Treated embryos were exposed to PMA during cleavage stage or during neurulation with end points of blastula (stage 8) or neurula (stage 15). Specifically, PMA 100 ng/ml was added to the incubation media during cleavage stages for evaluation in stage 8 embryo or PMA was added during neural induction for evaluation in stage 15 embryos. RNA extracted from the embryos was used to generate fluorescent cDNA probes for Xenopus microarray analyses to measure differential gene expression with and without the phorbol ester treatment. Analysis was performed using paired RNA samples to compare PMA-treated and untreated embryos: Group I measured the effects of PMA-treatment during the cleavage stage in stage 8 embryos and Group II measured the effects of PMA-treatment during neurulation in stage 15 embryos. Group III measured the change in gene expression between stage 8 and stage 15 embryos.
cDNA fragments were obtained by PCR replication of Xenopus laevis unfertilized egg cDNA inserts, purified, quantitated and loaded onto glass chips by robotics. In addition to the selected ˜1,200 genes, 64 lambda Q gene, an internal control cDNA (Genomic Solutions, Inc., Ann Arbor, Mich.) was loaded on the chip. The insert DNA from ˜1,200 clones were PCR amplified using forward and reverse primers (GF.200 primers, Research Genetics, Huntsville, Ala.). A second PCR was carried out using 1 μl of the primary PCR (20 μl) for template. Excess dNTPs, polymerase and other PCR artifacts were removed from the secondary PCR reactions using Millipore Multiscreen plates (Millipore Corporation, Bedford, Mass.) using the standard protocol. The purity of the PCR products was assessed by electrophoresis and documented using an Alphalmager 1000 Digital Imaging System (Alpha Innotech Corporation, San Leandro, Calif.). The DNA obtained by PCR was quantitated using PicoGreen (Molecular Probes, Eugene, Oreg.). The DNA was denatured and arrayed onto amino-silane coated microscope slides (CMT-GAPS coated slides, Corning, Corning, N.Y.) using a Flexys robotic workstation (Genomic Solutions Inc.). The ˜1,200 PCR products were arrayed in duplicate on each slide and cross-linked. Each gene chip contained duplicate cDNA samples.
Total RNA was prepared from embryos treated in three separate dishes per treatment group that were pooled. Total RNA was isolated from the frog embryos (1,200 embryos for each probe production) using TRIzol extraction (Gibco BRL, Grand Island, N.Y.) and Qiagen RNeasy kits (Qiagen, Valencia, Calif.). The ethanol precipitated RNA was resuspended in RNase-free water, quantitated with RiboGreen (Molecular Probes, Eugene, Oreg.). Total RNA was further purified using oligoTex mRNA maxi kit (Qiagen Co.) with the bound mRNA eluted with minimum volume of elution buffer and precipitated with ethanol. The recovery rate of mRNA by the ethanol precipitation method was ˜70%. Cy3- or Cy5-tagged probes were produced from an mRNA mixture (20 μl) of Xenopus mRNA (5 μg) and lambda Q gene mRNA (3.5 ng) reverse-transcribed with oligo(dT)18-22 primer and dNTPs and the reverse-transcribed cDNA was cross-linked with Cy3 or Cy5 as described in Clontech Atlas™ Glass Fluorescent Labeling kit manual (www.clontech.com). After hydrolysis of the RNA and purification of the probe (Centricon 50, Millipore, Bedford, Mass.), the cDNA in TE buffer was quantitated by absorbance at 260 nm. […]

For `CCCCCCCCCCCCCC(=O)O[C@@H]1[C@@H](C)[C@@]2(O)[C@@H](C=C(CO)C[C@]3(O)C(=O)C(C)=C[C@@H]23)[C@@H]2C(C)(C)[C@]12OC(C)=O` [PMA, phorbol 12-myristate 12-acetate], the “Cy3/Cy5 by Landmarks (0.25)” value (PBX0135G07 mRNA) was 3.95, the “Cy3/Cy5 by all Data Points (0.469)” value (PBX0135G07 mRNA) was 2.11 and the “Normalized by Landmarks (0.25)” value (PBX0135G07 mRNA) was 0.253. For the same compound, the “Normalized by all Data Points (0.469)” value (PBX0135G07 mRNA) was 0.474, the “Ratio of Medians (Cy5/Cy3) First Spot” value (PBX0135G07 mRNA) was 0.98 and the “Ratio of Medians (Cy5/Cy3) Mean” value (PBX0135G07 mRNA) was 1.01 ± 0.03 ^a. For the same compound, the “Ratio of Medians (Cy5/Cy3) Second Spot” value (PBX0135G07 mRNA) was 1.04, the “Cy3/Cy5 by Landmarks (0.25)” value (PBX0135H08 mRNA) was 4.93 and the “Cy3/Cy5 by all Data Points (0.469)” value (PBX0135H08 mRNA) was 2.63. The “Normalized by Landmarks (0.25)” value (PBX0135H08 mRNA) was 0.203, the “Normalized by all Data Points (0.469)” value (PBX0135H08 mRNA) was 0.380 and the “Ratio of Medians (Cy5/Cy3) First Spot” value (PBX0135H08 mRNA) was 0.78. The “Ratio of Medians (Cy5/Cy3) Mean” value (PBX0135H08 mRNA) was 0.81 ± 0.03 ^a, the “Ratio of Medians (Cy5/Cy3) Second Spot” value (PBX0135H08 mRNA) was 0.84 and the “Normalized by Landmarks (0.25)” value (PBX 0136C09 mRNA) was 1.53. The “Normalized by all Data Points (0.469)” value (PBX 0136C09 mRNA) was 2.87, the “Ratio of Medians (Cy5/Cy3) First Spot” value (PBX 0136C09 mRNA) was 4.19 and the “Ratio of Medians (Cy5/Cy3) Mean” value (PBX 0136C09 mRNA) was 6.12 ± 1.93 ^a. The “Ratio of Medians (Cy5/Cy3) Second Spot” value (PBX 0136C09 mRNA) was 8.05, the “Normalized by Landmarks (0.25)” value (PBX 0136C12 mRNA) was 1.51 and the “Normalized by all Data Points (0.469)” value (PBX 0136C12 mRNA) was 2.82. For the same compound, the “Ratio of Medians (Cy5/Cy3) First Spot” value (PBX 0136C12 mRNA) was 5.29, the “Ratio of Medians (Cy5/Cy3) Mean” value (PBX 0136C12 mRNA) was 6.02 ± 0.73 ^a and the “Ratio of Medians (Cy5/Cy3) Second Spot” value (PBX 0136C12 mRNA) was 6.75. For the same compound, the “Normalized by Landmarks (0.25)” value (PBX 0136F03 mRNA) was 1.54, the “Normalized by all Data Points (0.469)” value (PBX 0136F03 mRNA) was 2.90 and the “Ratio of Medians (Cy5/Cy3) First Spot” value (PBX 0136F03 mRNA) was 3.67. For the same compound, the “Ratio of Medians (Cy5/Cy3) Mean” value (PBX 0136F03 mRNA) was 6.18 ± 2.5 ^a, the “Ratio of Medians (Cy5/Cy3) Second Spot” value (PBX 0136F03 mRNA) was 8.68 and the “Normalized by Landmarks (0.25)” value (PBX 0136G06 mRNA) was 1.36. For the same compound, the “Normalized by all Data Points (0.469)” value (PBX 0136G06 mRNA) was 2.54, the “Ratio of Medians (Cy5/Cy3) First Spot” value (PBX 0136G06 mRNA) was 4.95 and the “Ratio of Medians (Cy5/Cy3) Mean” value (PBX 0136G06 mRNA) was 5.42 ± 0.47 ^a. The “Ratio of Medians (Cy5/Cy3) Second Spot” value (PBX 0136G06 mRNA) was 5.89, the “Normalized by Landmarks (0.25)” value (PBX 0136G08 mRNA) was 1.36 and the “Normalized by all Data Points (0.469)” value (PBX 0136G08 mRNA) was 2.54. The “Ratio of Medians (Cy5/Cy3) First Spot” value (PBX 0136G08 mRNA) was 4.48, the “Ratio of Medians (Cy5/Cy3) Mean” value (PBX 0136G08 mRNA) was 5.43 ± 0.94 ^a and the “Ratio of Medians (Cy5/Cy3) Second Spot” value (PBX 0136G08 mRNA) was 6.37. The “Cy3/Cy5 by Landmarks (0.25)” value (PBX0137F04 mRNA) was 3.70, the “Cy3/Cy5 by all Data Points (0.469)” value (PBX0137F04 mRNA) was 1.97 and the “Normalized by Landmarks (0.25)” value (PBX0137F04 mRNA) was 0.270. For the same compound, the “Normalized by all Data Points (0.469)” value (PBX0137F04 mRNA) was 0.507, the “Ratio of Medians (Cy5/Cy3) First Spot” value (PBX0137F04 mRNA) was 0.95 and the “Ratio of Medians (Cy5/Cy3) Mean” value (PBX0137F04 mRNA) was 1.08 ± 0.13 ^a. The “Ratio of Medians (Cy5/Cy3) Second Spot” value (PBX0137F04 mRNA) was 1.21, the “Normalized by Landmarks (0.25)” value (PBX 0138E11 mRNA) was 1.57 and the “Normalized by all Data Points (0.469)” value (PBX 0138E11 mRNA) was 2.95. For the same compound, the “Ratio of Medians (Cy5/Cy3) First Spot” value (PBX 0138E11 mRNA) was 5.02, the “Ratio of Medians (Cy5/Cy3) Mean” value (PBX 0138E11 mRNA) was 6.29 ± 1.27 ^a and the “Ratio of Medians (Cy5/Cy3) Second Spot” value (PBX 0138E11 mRNA) was 7.56. The “Normalized by Landmarks (0.25)” value (PBX 0138H03 mRNA) was 1.44, the “Normalized by all Data Points (0.469)” value (PBX 0138H03 mRNA) was 2.70 and the “Ratio of Medians (Cy5/Cy3) First Spot” value (PBX 0138H03 mRNA) was 6.36. For the same compound, the “Ratio of Medians (Cy5/Cy3) Mean” value (PBX 0138H03 mRNA) was 5.75 ± 0.61 ^a, the “Ratio of Medians (Cy5/Cy3) Second Spot” value (PBX 0138H03 mRNA) was 5.14 and the “Cy3/Cy5 by Landmarks (0.25)” value (PBX0139G06 mRNA) was 3.77. For the same compound, the “Cy3/Cy5 by all Data Points (0.469)” value (PBX0139G06 mRNA) was 2.01, the “Normalized by Landmarks (0.25)” value (PBX0139G06 mRNA) was 0.265 and the “Normalized by all Data Points (0.469)” value (PBX0139G06 mRNA) was 0.497. The “Ratio of Medians (Cy5/Cy3) First Spot” value (PBX0139G06 mRNA) was 1.06.
